Measured values as given in US7405240B2, “Substituted cyclopentanes or cyclopentanones as therapeutic agents” (Allergan, Inc., priority 2006, dated 2008).

Assays:
[1] = target: T1, hEP2 (Homo sapiens, UniProt P43116); test: cAMP assay, hEP2; assay type: cell-based
[2] = target: T1, hEP2; test: Competition binding, [3H]PGE2, human EP2 receptors; set-up: expressed in transfected cells; host or cells: HEK 293; conditions: [3H]PGE2, HEK 293 cells stably expressing human EP2; read-out: hEP2 Ki
Procedure: Competition binding experiments were performed in a medium containing Hank's balanced salt solution, Hepes 20 mM, pH 7.3, membranes (˜60 μg protein) or 2×10^5 cells from HEK 293 cells stably expressing human EP2 receptors, [^3H]PGE2 (10 nM) and various concentrations of test compounds in a total volume of 300 μl. Reaction mixtures were incubated at 23° C. for 60 min, and were filtered over Whatman GF/B filters under vacuum. Filters were washed three times with 5 ml ice-cold buffer containing 50 mM Tris/HCl (pH 7.3). Non-specific binding was estimated in the presence of excess unlabeled PGE2 (10 μM). Binding data fitted to the binding model for a single class of binding sites, using nonlinear regression analysis. IC50 values thus obtained were converted to Ki using the equation of Ki=(IC50/(1+[L]/KD) where [L] represents PGE2 concentration (10 nM) and KD the dissociation constant for [^3H]PGE2 at human EP2 receptors (40 nM).
(§1) HEK-293 cells stably expressing the human or feline FP receptor, or EP1, EP2, or EP4 receptors were washed with TME buffer, scraped from the bottom of the flasks, and homogenized for 30 sec using a Brinkman PT 10/35 polytron. TME buffer was added to achieve a final 40 ml volume in the centrifuge tubes (the composition of TME is 100 mM TRIS base, 20 mM MgCl2, […]; 10N HCl is added to achieve a pH of 7.4).
(§2) The cell homogenate was centrifuged at 19000 r.p.m. for 20 min at 4° C. using a Beckman Ti-60 rotor. The resultant pellet was resuspended in TME buffer to give a final 1 mg/ml protein concentration, as determined by Biorad assay. Radioligand binding competition assays vs. [3H-] 17-phenyl PGF2, (5 nM) were performed in a 100 μl volume for 60 min. Binding reactions were started by adding plasma membrane fraction. The reaction was terminated by the addition of 4 ml ice-cold TRIS-HCl buffer and rapid filtration through glass fiber GF/B filters using a Brandel cell harvester. The filters were washed 3 times with ice-cold buffer and oven dried for one hour.
(§3) [^3H-] PGE2 (specific activity 180 Ci mmol) was used as the radioligand for EP receptors. [^3H] 17-phenyl PGF2, was employed for FP receptor binding studies. Binding studies employing EP1, EP2, EP4 and FP receptors were performed in duplicate in at least three separate experiments. A […] assay volume was used. Incubations were for 60 min at 25° C. and were terminated by the addition of 4 ml of ice-cold 50 mM TRIS-HCl, followed by rapid filtration through Whatman GF/B filters and three additional 4 ml washes in a cell harvester (Brandel). Competition studies were performed using a final concentration of 5 nM [^3H]-PGE2, or 5 nM [^3H] 17-phenyl PGF2, and non-specific binding determined with 10^−5M of unlabeled PGE2, or 17-phenyl PGF2α, according to receptor subtype studied.

[3] = target: hEP4 (Homo sapiens, UniProt P35408); test: Radioligand binding, EP4 receptor; set-up: expressed in transfected cells; host or cells: HEK-293; conditions: [3H]PGE2, HEK-293 cells expressing EP4
Chain of hEP4 (P35408 whole entry): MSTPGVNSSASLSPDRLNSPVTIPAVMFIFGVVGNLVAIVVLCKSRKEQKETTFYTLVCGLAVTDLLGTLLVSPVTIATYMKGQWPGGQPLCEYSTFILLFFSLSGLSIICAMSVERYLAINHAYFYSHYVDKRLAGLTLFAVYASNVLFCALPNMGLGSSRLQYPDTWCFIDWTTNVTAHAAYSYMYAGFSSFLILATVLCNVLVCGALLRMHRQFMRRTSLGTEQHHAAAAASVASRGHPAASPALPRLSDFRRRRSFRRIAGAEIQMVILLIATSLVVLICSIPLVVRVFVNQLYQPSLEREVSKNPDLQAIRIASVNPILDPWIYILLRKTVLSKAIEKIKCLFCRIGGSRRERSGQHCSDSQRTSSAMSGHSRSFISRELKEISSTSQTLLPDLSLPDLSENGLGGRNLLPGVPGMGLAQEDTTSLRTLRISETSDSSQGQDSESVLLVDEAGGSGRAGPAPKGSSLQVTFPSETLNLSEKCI
Procedure: as §1, §2, §3

[4] = target: T1, hEP2; test: FLIPR calcium signal, hEP2; assay type: cell-based; set-up: expressed in transfected cells; host or cells: HEK-293(EBNA); conditions: HEK-293(EBNA) cells expressing hEP2/Gqs5
Procedure: Methods for FLIPR™ Studies
HEK-293(EBNA) cells, stably expressing one type or subtype of recombinant human prostaglandin receptors (prostaglandin receptors expressed: hDP/Gqs5; hEP1; hEP2/Gqs5; hEP3A/Gqi5; hEP4/Gqs5; hFP; hIP; hTP), were cultured in 100 mm culture dishes in high-glucose DMEM medium containing 10% fetal bovine serum, 2 mM 1-glutamine, 250 μg/ml geneticin (G418) and 200 μg/ml hygromycin B as selection markers, and 100 units/ml penicillin G, 100 μg/ml streptomycin and 0.25 μg/ml amphotericin B.
Cells were seeded at a density of 5×10^4 cells per well in Biocoat® Poly-D-lysine-coated black-wall, clear-bottom 96-well plates (Becton-Dickinson) and allowed to attach overnight in an incubator at 37° C. Cells were then washed two times with HBSS-HEPES buffer (Hanks Balanced Salt Solution without bicarbonate and phenol red, 20 mM HEPES, pH 7.4) using a Denley Cellwash plate washer (Labsystems). After 45 minutes of dye-loading in the dark, using the calcium-sensitive dye Fluo-4 AM at a final concentration of 2 μM, plates were washed four times with HBSS-HEPES buffer to remove excess dye leaving 100 μl in each well. Plates were re-equilibrated to 37° C. for a few minutes.
Cells were excited with an Argon laser at 488 nm, and emission was measured through a 510-570 nm bandwidth emission filter (FLIPR™, Molecular Devices, Sunnyvale, Calif.). Drug solution was added in a 50 μl volume to each well to give the desired final concentration. The peak increase in fluorescence intensity was recorded for each well. On each plate, four wells each served as negative (HBSS-HEPES buffer) and positive controls (standard agonists: BW245C (hDP); PGE2 (hEP1; hEP2/Gqs5; hEP3A/Gqi5; hEP4/Gqs5); PGF2α (hFP); carbacyclin (hIP); U-46619 (hTP), depending on receptor). The peak fluorescence change in each drug-containing well was then expressed relative to the controls.
Compounds were tested in a high-throughput (HTS) or concentration-response (CoRe) format. In the HTS format, forty-four compounds per plate were examined in duplicates at a concentration of 10^−5 M. To generate concentration-response curves, four compounds per plate were tested in duplicates in a concentration range between 10^−5 and 10^−11 M. The duplicate values were averaged. In either, HTS or CoRe format each compound was tested on at least 3 separate plates using cells from different passages to give an n≧3.

T1 sequence (P43116 whole entry): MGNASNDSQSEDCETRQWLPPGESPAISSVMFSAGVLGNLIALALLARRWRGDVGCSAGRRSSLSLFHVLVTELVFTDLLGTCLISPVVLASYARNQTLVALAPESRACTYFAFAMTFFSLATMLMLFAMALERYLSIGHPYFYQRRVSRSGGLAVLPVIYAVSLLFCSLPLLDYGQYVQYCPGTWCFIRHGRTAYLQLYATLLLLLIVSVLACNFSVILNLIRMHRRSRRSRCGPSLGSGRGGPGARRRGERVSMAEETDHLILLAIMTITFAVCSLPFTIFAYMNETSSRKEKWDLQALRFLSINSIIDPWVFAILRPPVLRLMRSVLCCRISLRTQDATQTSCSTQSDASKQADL

| EC50 [1] | Ki [2] | Ki [3] | EC50 [4] | SMILES |
| --- | --- | --- | --- | --- |
| 68 nM | 826 nM | 1130 nM | 463 nM | CCCCCC(O)c1cccc(OC[C@@H]2[C@@H](C/C=C\CCCC(=O)O)[C@H](Cl)C[C@H]2O)c1 (stereo partly drawn) [Example 50, (Z)-7-{(1R,2S,3R,5R)-5-Chloro-3-hydroxy-2-[3-(1-hydroxy-hexyl)-phenoxymethyl]-cyclopentyl}-hept-5-enoic acid] |
| 47 nM | 904 nM | 5280 nM | 661 nM | CCCC(OC)c1ccc(OC[C@@H]2[C@@H](C/C=C\CCCC(=O)O)[C@H](Cl)C[C@H]2O)cc1 (stereo partly drawn) [Example 45, (Z)-7-{(1R,2S,3R,5R)-5-Chloro-3-hydroxy-2-[4-(1-methoxy-butyl)-phenoxymethyl]-cyclopentyl}-hept-5-enoic acid] |
| 66 nM | 2730 nM | > 10000 nM | 1100 nM | CCCC(O)c1ccc(OC[C@@H]2[C@@H](C/C=C\CCCC(=O)O)[C@H](Cl)C[C@H]2O)cc1 (stereo partly drawn) [Example 44, (Z)-7-{(1R,2S,3R,5R)-5-Chloro-3-hydroxy-2-[4-(1-hydroxy-butyl)-phenoxymethyl]-cyclopentyl}-hept-5-enoic acid] |
| 18 nM | 1500 nM | > 10000 nM | > 10000 nM | O=Cc1ccc(OC[C@@H]2[C@@H](C/C=C\CCCC(=O)O)[C@H](Cl)C[C@H]2O)cc1 [Example 42, (Z)-7-[(1R,2S,3R,5R)-5-Chloro-2-(4-formyl-phenoxymethyl)-3-hydroxy-cyclopentyl]-hept-5-enoic acid] |
| 40 nM | 701 nM | > 10000 nM | 121 nM | CC(O)c1cccc(OC[C@@H]2[C@@H](C/C=C\CCCC(=O)O)[C@H](Cl)C[C@H]2O)c1 (stereo partly drawn) [Example 54, (Z)-7-{(1R,2S,3R,5R)-5-Chloro-3-hydroxy-2-[3-(1-hydroxy-ethyl)-phenoxymethyl]-cyclopentyl}-hept-5-enoic acid] |
| 39 nM | 772 nM | > 10000 nM | 196 nM | CC(C)C(O)c1cccc(OC[C@@H]2[C@@H](C/C=C\CCCC(=O)O)[C@H](Cl)C[C@H]2O)c1 (stereo partly drawn) [Example 51, (Z)-7-{(1R,2S,3R,5R)-5-Chloro-3-hydroxy-2-[3-(1-hydroxy-2-methyl-propyl)-phenoxymethyl]-cyclopentyl}-hept-5-enoic acid] |
| 124 nM | 5290 nM | > 10000 nM | 1940 nM | CC(O)c1ccc(OC[C@@H]2[C@@H](C/C=C\CCCC(=O)O)[C@H](Cl)C[C@H]2O)cc1 (stereo partly drawn) [Example 47, (Z)-7-{(1R,2S,3R,5R)-5-Chloro-3-hydroxy-2-[4-(1-hydroxy-ethyl)-phenoxymethyl]-cyclopentyl}-hept-5-enoic acid] |
| 119 nM | 2350 nM | 2650 nM | 531 nM | CCCCCC(O)c1ccc(OC[C@@H]2[C@@H](C/C=C\CCCC(=O)O)[C@H](Cl)C[C@H]2O)cc1 (stereo partly drawn) [Example 46, (Z)-7-{(1R,2S,3R,5R)-5-Chloro-3-hydroxy-2-[4-(1-hydroxy-hexyl)-phenoxymethyl]-cyclopentyl}-hept-5-enoic acid] |

The next lines start with the compound.

| SMILES | EC50 [1] | Ki [2] | Ki [3] | EC50 [4] |
| --- | --- | --- | --- | --- |
| O=C(O)CCC/C=C\C[C@@H]1[C@@H](COc2cccc(C(O)Cc3ccccc3)c2)[C@H](O)C[C@H]1Cl (stereo partly drawn) [Example 53, (Z)-7-{(1R,2S,3R,5R)-5-Chloro-3-hydroxy-2-[3-(1-hydroxy-2-phenyl-ethyl)-phenoxymethyl]-cyclopentyl}-hept-5-enoic acid] | 496 nM | 1750 nM | 1850 nM | 1730 nM |
| O=C(O)CCC/C=C\C[C@@H]1[C@@H](COc2cccc3c2CCC3=O)[C@H](O)C[C@H]1Cl [Example 58, (Z)-7-[(1R,2S,3R,5R)-5-Chloro-3-hydroxy-2-(1-oxo-indan-4-yloxymethyl)-cyclopentyl]-hept-5-enoic acid] | 6.5 nM | 129 nM | 2830 nM | 51 nM |
| COCc1c(C)cc(OC[C@@H]2[C@@H](C/C=C\CCCC(=O)O)[C@H](Cl)C[C@H]2O)cc1C [Example 57, (Z)-7-[(1R,2S,3R,5R)-5-Chloro-3-hydroxy-2-(4-methoxymethyl-3,5-dimethyl-phenoxymethyl)-cyclopentyl]-hept-5-enoic acid] | 23 nM | 195 nM | 1660 nM | 142 nM |
| Cc1cc(OC[C@@H]2[C@@H](C/C=C\CCCC(=O)O)[C@H](Cl)C[C@H]2O)cc(C)c1CO [Example 56, (Z)-7-[(1R,2S,3R,5R)-5-Chloro-3-hydroxy-2-(4-hydroxymethyl-3,5-dimethyl-phenoxymethyl)-cyclopentyl]-hept-5-enoic acid] | 1.8 nM | 64 nM | 2200 nM | 27 nM |
| O=C(O)CCC/C=C\C[C@@H]1[C@@H](COc2cccc3c2CCC3O)[C@H](O)C[C@H]1Cl (stereo partly drawn) [Example 59, (Z)-7-[(1R,2S,3R,5R)-5-Chloro-3-hydroxy-2-(1-hydroxy-indan-4-yloxymethyl)-cyclopentyl]-hept-5-enoic acid] | 1.2 nM | 139 nM | 3000 nM | 108 nM |
| O=C(O)CCC/C=C\C[C@@H]1[C@@H](COc2cccc(CO)c2)[C@H](O)C[C@H]1Cl [Example 49, (Z)-7-[(1R,2S,3R,5R)-5-Chloro-3-hydroxy-2-(3-hydroxymethyl-phenoxymethyl)-cyclopentyl]-hept-5-enoic acid] | 14 nM | 207 nM | > 10000 nM | 374 nM |
| CC(C)(c1ccccc1)c1ccc(OC[C@@H]2[C@@H](C/C=C\CCCC(=O)O)[C@H](Cl)C[C@H]2O)cc1 [Example 31, (Z)-7-{(1R,2S,3R,5R)-5-Chloro-3-hydroxy-2-[4-(1-methyl-1-phenyl-ethyl)-phenoxymethyl]-cyclopentyl}-hept-5-enoic acid] | – | > 10000 nM | 1740 nM | > 10000 nM |
